The values below come from patent publication US10604512B2, “3-(1H-indol-2-yl)-1H-indazoles and therapeutic uses thereof” (Samumed, LLC, priority 2015, dated 2020).

As usually defined, the EC50 is the midpoint of the concentration-response curve. A low value points to greater potency.

What all share (type): cell-based
For test [1], the system named is Primary human fibroblasts derived from IPF patients (LL29 cells) treated with TGF-β1. Put plainly: Inhibition of the fibrotic process: αSMA staining in TGF-β1-treated primary human fibroblasts from IPF patients (LL29 cells). Particulars: Fibroblast, 96 h, % αSMA-positive LL29 cells, TGF-β1 20 ng/mL, 4 days. An excerpt:
Representative compounds were screened using primary human fibroblasts (derived from IPF patients) treated with TGF-β1 to determine their ability to inhibit the fibrotic process.
Primary human fibroblasts derived from IPF patients (LL29 cells) [^1Xiaoqiu Liu, et. al., “Fibrotic Lung Fibroblasts Show Blunted Inhibition by cAMP Due to Deficient cAMP Response Element-Binding Protein Phosphorylation”, Journal of Pharmacology and Experimental Therapeutics (2005), 315(2), 678-687; ^2Watts, K. L., et. al., “RhoA signaling modulates cyclin D1 expression in human lung fibroblasts; implications for idiopathic pulmonary fibrosis”, Respiratory Research (2006), 7(1), 88] were obtained from American Type Culture Collection (ATCC) and expanded in F12 medium supplemented with 15% Fetal Bovine Serum and Penicillin/Streptomycin.
Each compound was dissolved in DMSO as a 10 mM stock and used to prepare compound source plates. Serial dilution (1:2, 11-point dose-response curves from 10 μM to […]) and compound transfer was performed using the ECHO 550 (Labcyte, Sunnyvale, Calif.) into 384-well clear bottom assay plates (Greiner Bio-One) with appropriate DMSO backfill for a final DMSO concentration of 0.1%. LL29 cells are plated at 1,500 cells/well in 80 μL/well F12 medium supplemented with 1% Fetal Bovine Serum. One hour after addition of the cells, TGF-β1 (Peprotech; 20 ng/mL) was added to the plates to induce fibrosis (ref 1 and 2 above). Wells treated with TGF-β1 and containing DMSO were used as controls. Cells were incubated at 37° C. and 5% CO2 for 4 days. Following incubation for 4 days, SYTOX green nucleic acid stain (Life Technologies [Thermo Fisher Scientific]) was added to the wells at a final concentration of 1 μM and incubated at room temperature for 30 min. Cells were then fixed using 4% formaldehyde (Electron Microscopy Sciences), washed 3 times with PBS followed by blocking and permeabilization using 3% Bovine Serum Albumin (BSA; Sigma) and 0.3% Triton X-100 (Sigma) in PBS. Cells were then stained with antibody specific to α-smooth muscle actin (αSMA; Abcam) (ref 1 and 2 above) in 3% Bovine Serum Albumin (BSA; Sigma) and 0.3% Triton X-100 (Sigma) in PBS, and incubated overnight at 4° C. Cells were then washed 3 times with PBS, followed by incubation with Alexa Flor-647 conjugated secondary antibody (Life Technologies [Thermo Fisher Scientific]) and DAPI at room temperature for 1 hour. Cells were then washed 3 times with PBS and plates were sealed for imaging. αSMA staining was imaged by excitation at 630 nm and emission at 665 nm and quantified using the Compartmental Analysis program on the CellInsight CX5 (Thermo Scientific). Dead or apoptotic cells were excluded from analysis based on positive SYTOX green staining. % of total cells positive for αSMA were counted in each well and normalized to the average of 11 wells treated with TGF-β1 on the same plate using Dotmatics' Studies Software. The normalized averages (fold change over untreated) of 3 replicate wells for each compound concentration were used to create dose-responses curves and EC50 values were calculated using non-linear regression curve fit in the Dotmatics' Studies Software. For EC50 of >10 μM, the percent inhibition at 10 μM is provided.

The test system of test [2] is IL-6. The test can be described thus: Inhibition of IL-6 in LPS-stimulated THP-1 human monocyte cells (HTRF). As to conditions: for EC50: IL-6 inhibition, LPS-stimulated THP-1 cells, HTRF. On the procedure:
Human monocyte cell line (THP-1 cells; Catalog # TIB-202, ATCC, Manassas, Va.) were cultured in Roswell Park Memorial Institute (RPMI) 1640 Medium (Catalog #21870-100, Buffalo, N.Y.) with 1% L-glutamine, 1% HEPES, 1% Sodium Pyruvate, 2% Sodium Bicarbonate supplemented with 100 units/mL penicillin, 50 μg/mL streptomycin, 2-mercaptoethanol (0.05 mM) [basal medium] and 10% fetal bovine serum (Catalog #16140089, Life Technologies, Carlsbad, Calif.) at 37° C. and 5% CO2.
THP-1 cells were cultured in basal media with 1% FBS for 24 hours before the start of the assay. Each compound was dissolved in DMSO as a 10 mM stock and used to prepare compound source plates. Serial dilution (1:3, 10-point dose-response curves starting from 10 μM) and compound transfer was performed using the ECHO 550 (Labcyte, Sunnyvale, Calif.) into 384-well white low volume assay plates (Greiner Bio-One) with appropriate DMSO backfill for a final DMSO concentration of 0.1%. THP-1 cells were plated at 5000 cells/well in the 384-well plates and incubated at 37° C. for 2 h. 500 ng/mL of LPS was added after 2 hours and cells were incubated for another 22 hours at 37° C. Plates were spun in a centrifuge for 1 minute at […] and a mixture of anti-IL6 XL665, and anti-IL6 Cryptate diluted in reconstitution buffer (Cisbio Inc.) was added to each well. Following incubation for 3 hrs at room temperature, Homogeneous Time-Resolved Fluorescence (HTRF) was measured using the Envision (Perkin Elmer) at 665 nm and […]. The ratio of fluorescence at 665 nm to 620 nm was used as a readout for IL6 quantification. All samples were processed in duplicate. Readings were normalized to DMSO treated cells and normalized activities were utilized for EC50 calculations using the dose-response log (inhibitor) vs. response variable slope (four parameters) nonlinear regression feature available in GraphPad Prism 5.0 (or Dotmatics). For EC50 of >10 μM, the percent inhibition at 10 μM is provided.
On the technique in general: In TR-FRET formats the signal depends on donor and acceptor labels being close together.

Test [3] relates to Wnt activity (Sp5-Luc reporter, TCF/LEF binding sites) in SW480 colon carcinoma cells. Put plainly: Screening assay for Wnt activity: Sp5-Luc reporter gene assay in stably transduced SW480 colon carcinoma cells. As to conditions: Homo sapiens, overnight incubation, 10-point curve from 10 μM. An excerpt: The screening assay for Wnt activity is described as follows. Reporter cell lines can be generated by stably transducing cancer cell lines (e.g., colon cancer) or primary cells (e.g., IEC-6 intestinal cells) with a lentiviral construct that includes a Wnt-responsive promoter driving expression of the firefly luciferase gene.
SW480 colon carcinoma cells were transduced with a lentiviral vector expressing luciferase with a human Sp5 promoter consisting of a sequence of eight TCF/LEF binding sites. SW480 cells stably expressing the Sp5-Luc reporter gene and a hygromycin resistance gene were selected by treatment with 150 μg/mL of hygromycin for 7 days. These stably transduced SW480 cells were expanded in cell culture and used for all further screening activities. Each compound was dissolved in DMSO as a 10 mM stock and used to prepare compound source plates. Serial dilution (1:3, 10-point dose-response curves starting from 10 μM) and compound transfer was performed using the ECHO 550 (Labcyte, Sunnyvale, Calif.) into 384-well white solid bottom assay plates (Greiner Bio-One) with appropriate DMSO backfill for a final DMSO concentration of 0.1%. For Sp5-Luc reporter gene assays, the cells were plated at 4,000 cells/well in 384-well plates with medium containing 1% fetal bovine serum and incubated overnight at 37° C. and 5% CO2. Following incubation, 20 μl of BrightGlo luminescence reagent (Promega) was added to each well of the 384-well assay plates. The plates were placed on an orbital shaker for 2 min and then luminescence was quantified using the Envision (Perkin Elmer) plate reader. Readings were normalized to DMSO only treated cells, and normalized activities were utilized for EC50 calculations using the dose-response log (inhibitor) vs. response variable slope (four parameters) nonlinear regression feature available in GraphPad Prism 5.0 (or Dotmatics). For EC50 of >10 μM, the percent inhibition at 10 μM is provided.
Background: In a reporter assay the amount or activity of a reporter protein is the signal.

Test [4] deals with SW480 colon cancer cells. The test can be described thus: Cell viability assay (CellTiter-Blue) in SW480 colon cancer cells. As to conditions: Homo sapiens, 96 h, four days, CellTiter-Blue. On the procedure:
Representative compounds were screened using the following assay procedure to assess the effect on cell viability as described below.
Each compound was dissolved in DMSO as a 10 mM stock and used to prepare compound source plates. Serial dilution (1:3, 8-point dose-response curves from 10 μM to 0.0045 μM) and compound transfer was performed using the ECHO 550 (Labcyte, Sunnyvale, Calif.) into 96-well clear bottom, black-walled plates (Corning-Costar).
Approximately 2×10^3 SW480 colon cancer cells were seeded into each well and allowed to incubate in the presence or absence of compound for four days at 37° C./5% CO2. Eight replicates of DMSO-treated cells served as controls and cells treated with compound were performed in duplicate.
After incubation, 20 μL of CellTiter-Blue (Promega) was added to each well allowed to incubate for approximately 3 hours. This reagent was a buffered solution which contains resazurin, metabolically active cells were able to reduce rezarurin (blue) into resorufin (pink) which was highly fluorescent. This measured fluorescence was used as a readout for cell viability.
After incubation, the plates were read at Ex 560 nm Em 590 nm (Cytation 3, BioTek). Dose-response curves were generated and EC50 concentration values were calculated using non-linear regression curve fit in the GraphPad Prism (San Diego, Calif.) or Dotmatics' Studies Software (Bishops Stortford, UK). For EC50 of >10 μM, the percent inhibition at 10 μM is provided.
(The colour change of resazurin is a common sign of viable cells or microbes.)

Take `CC(C)(C)CC(=O)Nc1cncc(-c2ccc3[nH]nc(-c4cc5c(-c6cccnc6)cccc5[nH]4)c3c2)c1` [Compound 100, 3,3-Dimethyl-N-(5-(3-(4-(pyridin-3-yl)-1H-indol-2-yl)-1H-indazol-5-yl)pyridin-3-yl)butanamide]: the EC50 in test [1] is 449 nM; in test [2] it was 174 nM; in test [3], 475 nM; in test [4] it was 1870 nM.
With `CS(=O)(=O)NCc1cc(F)cc(-c2cccc3[nH]c(-c4n[nH]c5ccc(-c6cncc(NC(=O)C7CC7)c6)cc45)cc23)c1` [Compound 496, N-(5-(3-(4-(3-Fluoro-5-(methylsulfonamidomethyl)phenyl)-1H-indol-2-yl)-1H-indazol-5-yl)pyridin-3-yl)cyclopropanecarboxamide], the EC50 in test [1] was found to be 399 nM; in test [2], 991 nM; in test [3], 130 nM; in test [4], 1030 nM.
In the case of `O=C(Nc1cncc(-c2ccc3[nH]nc(-c4cc5c(-c6ccc(F)cc6)cccc5[nH]4)c3c2)c1)C1CCC1` [Compound 49, N-(5-(3-(4-(4-Fluorophenyl)-1H-indol-2-yl)-1H-indazol-5-yl)pyridin-3-yl) cyclobutanecarboxamide], the EC50 in test [1] came out at 778 nM; in test [2], 35 nM; in test [3], 190 nM; in test [4] it was 2600 nM.
In the case of `CS(=O)(=O)NCc1cc(F)cc(-c2cccc3[nH]c(-c4n[nH]c5ccc(-c6cncc(N)c6)cc45)cc23)c1` [Compound 479, N-(3-(2-(5-(5-Aminopyridin-3-yl)-1H-indazol-3-yl)-1H-indol-4-yl)-5-fluorobenzyl)methanesulfonamide], the EC50 in test [1] stood at 134 nM; in test [2], 169 nM; in test [3] it was 80 nM; in test [4] it was 677 nM.
For `O=C(Nc1cncc(-c2ccc3[nH]nc(-c4cc5c(-c6cccs6)cccc5[nH]4)c3c2)c1)C1CCCC1` [Compound 358, N-(5-(3-(4-(Thiophen-2-yl)-1H-indol-2-yl)-1H-indazol-5-yl)pyridin-3-yl) cyclopentanecarboxamide], the half-maximal effective concentration (EC50) turned out to be 21 nM in test [1], 732 nM in test [2], 1230 nM in test [3] and 1100 nM in test [4].
As to `COc1cncc(-c2ccc3[nH]nc(-c4cc5c(-c6ccc(C)s6)cccc5[nH]4)c3c2)c1` [Compound 768, 5-(5-Methoxypyridin-3-yl)-3-(4-(5-methylthiophen-2-yl)-1H-indol-2-yl)-1H-indazole], the EC50 in test [2] was over 10000 nM; in test [3] it was 250 nM; in test [4], 1100 nM. Besides, in test [2] (THP-1, printed beside >10 μM EC50, top concentration 10 μM, meaning not given, read-out: percentage in parentheses after EC50 >10), the inhibition at 10 µM came out at 49.8%.
In the case of `c1cncc(-c2cccc3[nH]c(-c4n[nH]c5ccc(-c6cn[nH]c6)cc45)cc23)c1` [Compound 583, 5-(1H-Pyrazol-4-yl)-3-(4-(pyridin-3-yl)-1H-indol-2-yl)-1H-indazole], the EC50 came to 501 nM in test [1], 78 nM in test [2], 49 nM in test [3] and 128 nM in test [4].
In the same order, the values of `CS(=O)(=O)NCc1cc(F)cc(-c2cccc3[nH]c(-c4n[nH]c5ccc(-c6cncc(NC(=O)c7ccccc7)c6)cc45)cc23)c1` [Compound 487, N-(5-(3-(4-(3-Fluoro-5-(methylsulfonamidomethyl)phenyl)-1H-indol-2-yl)-1H-indazol-5-yl)pyridin-3-yl)benzamide] are 313 nM, 2060 nM, 650 nM and 3180 nM.
Regarding `COc1cncc(-c2ccc3[nH]nc(-c4cc5c(-c6ccsc6)cccc5[nH]4)c3c2)c1` [Compound 704, 5-(5-Methoxypyridin-3-yl)-3-(4-(thiophen-3-yl)-1H-indol-2-yl)-1H-indazole], the EC50 in test [1] is 31 nM; in test [2], 245 nM; in test [3] it was 565 nM; in test [4], 1800 nM.
